Data on 1 compound can be found in article PMC11094307, “Marine-derived EGFR inhibitors: novel compounds targeting breast cancer growth and drug resistance” (Frontiers in Pharmacology, 2024).

As usually defined, the IC50 is the concentration needed to halve the response being measured. In general, Kd refers to the free concentration of one partner at which half of the binding sites on the other are occupied at equilibrium, for simple one-to-one binding.

One assay concerns the target ABL (Homo sapiens, UniProt P00519). As to the kind of experiment: Kinase profiling. The class given is biochemical. Particulars: one of the other seven tyrosine kinases. As to the method:
(§1) The experiments were conducted in accordance with the manufacturer’s guidelines (Promega). The procedure began with a kinase reaction, where 5 μL of 1× kinase buffer was utilized, and the mixture was incubated at room temperature for 60 min. This step was followed by the addition of 5 μL of ADP-Glo™ reagent to terminate the kinase reaction and to deplete any remaining ATP, with a subsequent incubation period of 40 min at room temperature. Next, 10 μL of kinase detection reagent was added to convert ADP back into ATP, and luciferase along with luciferin was introduced to facilitate ATP detection. This mixture was then incubated at room temperature for an additional 30 min. Detection was carried out using a BioTek Synergy4 instrument, and data analysis, including curve fitting and presentation, was performed using GraphPad Prism version 5.0.

The target of the next assay is ECK (Homo sapiens, UniProt P29317). Briefly: Kinase profiling. The class given is biochemical. Particulars: one of the other seven tyrosine kinases. As to the method:
as §1

For the next assay, the target named is FGFR3 (Homo sapiens, UniProt P22607). Briefly: Kinase profiling. Particulars: one of the other seven tyrosine kinases. The class given is biochemical. Here is the method:
as §1

The next assay has as its target FAK (Homo sapiens, UniProt Q05397). As to the kind of experiment: Kinase profiling. The class given is biochemical. Particulars: one of the other seven tyrosine kinases. As to the method:
as §1

The target of the next assay is FLT1 (Homo sapiens, UniProt P17948). Briefly: Kinase profiling. The class given is biochemical. Particulars: one of the other seven tyrosine kinases. Here is the method: as §1
Sequence of FLT1 (P17948 27-1338): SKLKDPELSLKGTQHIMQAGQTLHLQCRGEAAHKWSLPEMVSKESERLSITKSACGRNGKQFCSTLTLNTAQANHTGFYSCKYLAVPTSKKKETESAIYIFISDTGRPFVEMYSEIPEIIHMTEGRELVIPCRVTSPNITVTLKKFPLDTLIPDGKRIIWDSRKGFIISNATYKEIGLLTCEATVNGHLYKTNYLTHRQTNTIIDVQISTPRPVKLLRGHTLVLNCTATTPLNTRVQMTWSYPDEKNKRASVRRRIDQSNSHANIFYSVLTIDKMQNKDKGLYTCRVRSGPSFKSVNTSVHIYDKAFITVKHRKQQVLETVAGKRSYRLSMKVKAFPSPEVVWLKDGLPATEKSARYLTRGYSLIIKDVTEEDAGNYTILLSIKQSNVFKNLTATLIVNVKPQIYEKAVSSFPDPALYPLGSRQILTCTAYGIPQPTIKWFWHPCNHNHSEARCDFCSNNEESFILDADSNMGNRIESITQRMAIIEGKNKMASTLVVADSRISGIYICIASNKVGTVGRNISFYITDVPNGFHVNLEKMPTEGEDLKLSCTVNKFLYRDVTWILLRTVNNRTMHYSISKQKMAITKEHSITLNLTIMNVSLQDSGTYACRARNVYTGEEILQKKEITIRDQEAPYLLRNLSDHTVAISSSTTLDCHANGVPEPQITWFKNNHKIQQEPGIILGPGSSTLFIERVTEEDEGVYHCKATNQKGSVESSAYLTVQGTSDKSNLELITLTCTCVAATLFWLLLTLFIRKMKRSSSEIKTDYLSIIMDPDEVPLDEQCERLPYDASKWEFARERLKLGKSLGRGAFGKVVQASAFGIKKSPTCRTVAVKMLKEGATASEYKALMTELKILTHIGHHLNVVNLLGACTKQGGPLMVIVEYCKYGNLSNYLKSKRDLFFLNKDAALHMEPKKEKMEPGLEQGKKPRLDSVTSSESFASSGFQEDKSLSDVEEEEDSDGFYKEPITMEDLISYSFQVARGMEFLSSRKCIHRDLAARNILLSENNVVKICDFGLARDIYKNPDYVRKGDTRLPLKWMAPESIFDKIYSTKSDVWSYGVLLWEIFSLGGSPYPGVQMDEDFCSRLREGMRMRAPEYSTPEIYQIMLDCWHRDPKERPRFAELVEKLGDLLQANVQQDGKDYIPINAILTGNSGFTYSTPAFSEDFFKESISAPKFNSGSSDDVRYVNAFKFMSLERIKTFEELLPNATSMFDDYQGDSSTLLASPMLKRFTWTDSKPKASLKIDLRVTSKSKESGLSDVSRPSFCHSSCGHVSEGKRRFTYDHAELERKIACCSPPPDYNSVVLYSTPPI
Another assay deals with FGFR1 (Homo sapiens, UniProt P11362). Briefly: Kinase profiling. The class given is biochemical. Particulars: one of the other seven tyrosine kinases. Here is the method:
as §1

The next assay has as its system BCL-2. Briefly: Western blotting of MCF-7 lysates, BCL-2. The class given is cell-based, human. Particulars: for BCL-2 WB Normalized: control 0 µM 0.841817367. Here is the method: MCF-7 cell lysates were prepared by rinsing the cells twice with PBS and then solubilizing them in lysis buffer (NP40 supplemented with protease and phosphatase inhibitor cocktails) on ice. The solubilization process involved rotating the lysis buffer/cell mixture end over end for 10 min at 4°C. After centrifugation for 10 min at 4°C to remove insoluble material, the protein concentration of the solubilized protein was determined using a BCA assay. Subsequently, samples were diluted in SDS sample buffer. Equivalent amounts of protein were separated by SDS-PAGE, transferred to PVDF membranes, and probed with the indicated antibody. Prior to incubation with primary antibodies overnight at 4°C, the membranes were blocked with 5% skim milk-TBST. The antibodies and their sources were as follows: PARP1 (1:500, Santa Cruz Biotechnology), Cleaved Caspase-3 (1:1000, Cell Signaling Technology), BAX (1:500, Santa Cruz Biotechnology), BCL-2 (1:500, Santa Cruz Biotechnology), and GAPDH (1:500, Santa Cruz Biotechnology). Following incubation with horseradish peroxidase-conjugated goat anti-mouse or goat anti-rabbit secondary antibody (Santa Cruz Biotechnology), the detected proteins were visualized using the Pierce Enhanced Chemiluminescence (ECL) reagent and a UV Products imaging system. Band intensities were quantified using the National Institutes of Health ImageJ software.

A further assay deals with HL-60 cells. As to the kind of experiment: MTT assay, HL-60. The class given is cell-based, human. Particulars: HL-60 (low EGFR-expressing), 10 μM. As to the method: (§2) The cell lines MCF-7 and A431 were cultured in Dulbecco’s Modified Eagle’s Medium (DMEM, Gibco, USA), while HL-60, H1299, and A549 cells were maintained in RPMI-1640 medium (Gibco, USA). Both mediums were enriched with 10% fetal bovine serum and 1% penicillin/streptomycin. […] All cell cultures were incubated at 37°C in an atmosphere containing 5% CO2.
(§3) Cells in the exponential growth phase were seeded into 96-well plates and allowed to adhere overnight. Subsequently, they were treated in triplicate with various concentrations of the compounds (0, 1.56, 3.13, 6.25, 12.5, 25, 50, 100 µM), […]. After 24 h, 20 µL of Methyl-thiazolyldiphenyl-tetrazolium bromide (MTT, 5 mg/mL, Thermo Fisher Scientific) was added to each well and incubated for a minimum of 4 h. Following the incubation, the medium containing the compounds and MTT was removed from each well, and 200 µL of dimethyl sulfoxide (DMSO) was added. The plates were then shaken for 10 min at 37°C to dissolve the formazan crystals. The absorbance was measured using a microplate reader (BioTek Synergy 4) at a wavelength of 490 nm.
On the technique in general: Tetrazolium dyes change colour on reduction, which living cells bring about.

The subject of the next assay is MCF-10A cells. Briefly: MTT assay, MCF-10A. The class given is cell-based, human. Particulars: MCF-10A (non-tumorigenic epithelial), 10 μM. As to the method:
as §2, §3

The next assay relates to MCF-7 cells. As to the kind of experiment: Cell cycle analysis by flow cytometry (PI). The class given is cell-based, human. Particulars: 20 μM, 24 h. As to the method: After 24 h of treatment with various concentrations of compounds, MCF-7 cells were harvested and washed twice with phosphate-buffered saline (PBS). For cell cycle analysis, the cells were initially fixed with 70% ethanol at 4°C overnight and subsequently washed with PBS. The fixed cells were then resuspended in 1× PBS containing 0.5% Triton X-100, 50 μg/mL propidium iodide (PI), and 50 μg/mL DNase-free RNase A, and incubated at 37°C for 30 min in darkness. Following incubation, cell cycle distribution was assessed using a BD FACSCanto™ flow cytometer.
For orientation: Flow cytometry measures light scatter and fluorescence of single cells or particles in a stream.

The target in assay [1] is T1, EGFR extracellular ligand binding domain (Homo sapiens, UniProt P00533).
T1 construct: His; purchased Sinobiological, China
T1 sequence (P00533 25-645 limits assumed): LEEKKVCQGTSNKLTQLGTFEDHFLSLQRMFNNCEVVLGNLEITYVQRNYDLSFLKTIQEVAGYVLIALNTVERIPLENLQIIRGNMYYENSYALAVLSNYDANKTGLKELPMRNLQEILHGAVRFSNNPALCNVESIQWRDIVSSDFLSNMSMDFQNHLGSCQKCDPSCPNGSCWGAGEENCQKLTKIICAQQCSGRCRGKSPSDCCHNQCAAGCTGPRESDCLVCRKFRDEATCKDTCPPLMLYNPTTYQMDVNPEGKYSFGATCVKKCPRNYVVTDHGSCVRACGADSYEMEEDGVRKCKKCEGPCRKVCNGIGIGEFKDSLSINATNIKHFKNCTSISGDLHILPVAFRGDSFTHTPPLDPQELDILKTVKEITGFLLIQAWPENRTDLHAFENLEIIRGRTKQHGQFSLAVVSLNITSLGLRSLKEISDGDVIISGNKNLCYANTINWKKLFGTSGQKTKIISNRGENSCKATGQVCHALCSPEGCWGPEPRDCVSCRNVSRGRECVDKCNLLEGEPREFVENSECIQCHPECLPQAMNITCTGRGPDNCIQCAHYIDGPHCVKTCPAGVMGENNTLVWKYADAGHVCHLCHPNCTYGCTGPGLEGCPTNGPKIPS
Briefly: SPR binding (Biacore 8K). The source says:
The extracellular ligand-binding domain of EGFR, tagged with His, and the intracellular tyrosine kinase (TK) domain of EGFR, tagged with GST, were acquired from Sinobiological, China. Kinase assay systems for both wild-type EGFR and its mutants—T790M, L858R, and the dual L858R/T790M—were procured from Promega Corporation, USA. Cell lines including MCF-7, A549, A431, H1299, HL-60, and MCF-10A were obtained from the China Infrastructure Cell Line Resources.
The binding affinities of compounds towards EGFR extracellular ligand binding domain and EGFR intracellular kinase domain were assayed using the SPR-based Biacore 8K instrument (Cytiva). Considering the purchased EGFR was fused with GST tag, GST alone was also immobilized on the chip to do the binding measurement. All the proteins were respectively immobilized on a CM5 sensor chip by using standard amine-coupling at 25°C with running buffer HEPES-P (20 mM HEPES buffer, […], 0.05% surfactant P20, pH 7.4). A reference channel was only activated and blocked to eliminate compound unspecific binding to the surface of the chip. The immobilization level of EGFR extracellular ligand binding domain, EGFR intracellular kinase domain and GST were all about 10,000 RU. […] Extra wash with 50% DMSO was added to remove the last remaining sample in the pipeline.
Background: Surface plasmon resonance follows binding to a sensor surface in real time, without labels.

Sequence of FGFR1 (P11362 22-822): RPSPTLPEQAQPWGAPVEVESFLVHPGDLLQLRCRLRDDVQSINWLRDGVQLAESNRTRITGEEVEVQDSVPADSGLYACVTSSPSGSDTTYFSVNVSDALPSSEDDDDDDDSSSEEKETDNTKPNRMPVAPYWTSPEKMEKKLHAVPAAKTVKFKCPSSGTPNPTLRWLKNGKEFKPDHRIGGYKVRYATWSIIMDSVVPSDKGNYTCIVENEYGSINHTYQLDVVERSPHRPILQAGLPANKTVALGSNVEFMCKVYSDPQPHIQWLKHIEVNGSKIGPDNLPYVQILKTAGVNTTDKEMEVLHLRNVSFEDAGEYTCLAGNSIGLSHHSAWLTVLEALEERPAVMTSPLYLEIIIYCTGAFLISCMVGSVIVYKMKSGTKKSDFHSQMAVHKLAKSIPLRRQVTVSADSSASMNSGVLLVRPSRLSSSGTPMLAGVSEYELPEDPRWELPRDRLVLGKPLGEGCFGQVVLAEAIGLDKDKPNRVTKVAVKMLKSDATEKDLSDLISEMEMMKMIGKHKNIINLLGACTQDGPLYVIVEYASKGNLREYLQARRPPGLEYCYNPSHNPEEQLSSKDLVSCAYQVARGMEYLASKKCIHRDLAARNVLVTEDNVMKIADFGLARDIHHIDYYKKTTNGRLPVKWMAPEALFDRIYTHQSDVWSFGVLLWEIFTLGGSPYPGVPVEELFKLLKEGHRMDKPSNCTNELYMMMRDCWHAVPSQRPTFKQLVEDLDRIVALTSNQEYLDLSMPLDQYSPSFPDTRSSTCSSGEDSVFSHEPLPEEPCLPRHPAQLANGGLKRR
Sequence of ABL (P00519 whole entry): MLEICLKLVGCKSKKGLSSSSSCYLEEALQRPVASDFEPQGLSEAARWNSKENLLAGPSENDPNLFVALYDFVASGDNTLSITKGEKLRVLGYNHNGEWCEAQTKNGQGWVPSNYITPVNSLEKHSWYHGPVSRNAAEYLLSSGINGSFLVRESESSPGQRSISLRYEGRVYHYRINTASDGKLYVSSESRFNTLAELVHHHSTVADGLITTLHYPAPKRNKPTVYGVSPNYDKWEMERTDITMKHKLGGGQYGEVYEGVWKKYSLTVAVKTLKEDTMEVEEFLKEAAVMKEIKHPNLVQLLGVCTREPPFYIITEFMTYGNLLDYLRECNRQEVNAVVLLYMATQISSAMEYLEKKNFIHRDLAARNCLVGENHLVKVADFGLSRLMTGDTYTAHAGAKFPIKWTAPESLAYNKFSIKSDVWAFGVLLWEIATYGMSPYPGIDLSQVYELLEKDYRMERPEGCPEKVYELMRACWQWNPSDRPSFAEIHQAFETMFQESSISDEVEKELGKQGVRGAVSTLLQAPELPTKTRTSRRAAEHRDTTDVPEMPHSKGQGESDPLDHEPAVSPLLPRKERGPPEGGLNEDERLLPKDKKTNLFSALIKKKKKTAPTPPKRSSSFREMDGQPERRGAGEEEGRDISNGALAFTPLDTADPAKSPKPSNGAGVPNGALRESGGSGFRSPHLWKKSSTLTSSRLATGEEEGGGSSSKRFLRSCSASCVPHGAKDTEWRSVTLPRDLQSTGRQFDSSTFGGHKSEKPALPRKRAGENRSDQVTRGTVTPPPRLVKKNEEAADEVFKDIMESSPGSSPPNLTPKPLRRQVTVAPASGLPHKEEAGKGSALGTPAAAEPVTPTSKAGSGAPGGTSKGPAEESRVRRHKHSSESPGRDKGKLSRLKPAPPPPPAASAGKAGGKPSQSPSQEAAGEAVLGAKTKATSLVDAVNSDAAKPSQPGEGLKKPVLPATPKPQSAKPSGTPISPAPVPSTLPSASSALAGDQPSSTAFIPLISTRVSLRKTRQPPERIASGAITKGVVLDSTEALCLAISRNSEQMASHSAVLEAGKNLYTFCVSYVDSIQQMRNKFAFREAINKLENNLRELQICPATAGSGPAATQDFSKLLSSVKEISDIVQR
Sequence of FGFR3 (P22607 23-806): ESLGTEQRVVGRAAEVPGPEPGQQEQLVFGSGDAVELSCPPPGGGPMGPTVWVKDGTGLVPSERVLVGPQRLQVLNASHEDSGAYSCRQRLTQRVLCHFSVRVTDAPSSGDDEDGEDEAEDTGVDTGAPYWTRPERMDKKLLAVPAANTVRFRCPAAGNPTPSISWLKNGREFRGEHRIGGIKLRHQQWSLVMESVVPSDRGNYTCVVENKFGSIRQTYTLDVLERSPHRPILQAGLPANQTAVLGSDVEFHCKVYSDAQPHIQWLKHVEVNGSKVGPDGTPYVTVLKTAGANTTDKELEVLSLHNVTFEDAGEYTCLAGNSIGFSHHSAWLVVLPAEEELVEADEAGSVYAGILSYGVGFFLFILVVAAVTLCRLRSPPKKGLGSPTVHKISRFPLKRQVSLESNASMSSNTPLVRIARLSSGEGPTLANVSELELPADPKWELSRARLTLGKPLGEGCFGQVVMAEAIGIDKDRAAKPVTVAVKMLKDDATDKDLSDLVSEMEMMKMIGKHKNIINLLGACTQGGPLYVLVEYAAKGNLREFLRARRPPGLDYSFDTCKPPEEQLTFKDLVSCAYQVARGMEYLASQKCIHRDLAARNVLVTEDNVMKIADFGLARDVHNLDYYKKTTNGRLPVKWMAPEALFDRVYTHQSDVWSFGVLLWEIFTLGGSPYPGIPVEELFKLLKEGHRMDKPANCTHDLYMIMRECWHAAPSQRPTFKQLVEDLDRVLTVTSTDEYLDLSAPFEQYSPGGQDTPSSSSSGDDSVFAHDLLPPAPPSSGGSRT

Regarding `COC(=O)C/C(C)=C/C(=O)O[C@@H]1C[C@@H](C)[C@H]2[C@@H](C=C[C@H](CC(C)C)[C@]2(C)C(=O)/C=C\O)[C@@H]1O` [Tandyukisin], the IC50 at ABL, at ECK, at FGFR3, at FAK, at FLT1 and on FGFR1 was above 100 µM in each case. For the same compound, the “BCL-2 WB Gray Value” in the assay with BCL-2 (5 µM) is 41097.258; with BCL-2 (10 µM) it was 21588.48; in the assay with BCL-2 (20 µM) it was 7215.723. The “BCL-2 WB Normalized” value is 0.9373 with BCL-2 (5 µM), 0.4959 with BCL-2 (10 µM) and 0.211 with BCL-2 (20 µM). Besides, the figures for the cell lethality percentage with HL-60 cells and in the assay on MCF-10A cells were 11.1% ± 1.2% and 8.9% ± 1.5%, respectively. Also, the “percentage of cells in G0/G1 phase” value in the assay on MCF-7 cells is 85.67%. Besides, binding in [1] was characterised by a dissociation constant (Kd) of 101 µM. For the same compound, the kon in assay [1] (Figure 4C-D, read-out: ka, EGFR ligand binding domain) is 109 M⁻¹ s⁻¹.
